Measurements published in US10941169B2, “Crystal of cyclic phosphonic acid sodium salt and method for manufacturing same” (OTSUKA CHEMICAL CO., LTD., priority 2014, dated 2021).
Structures can show the parent of a compound that is named as a salt.

Tests used:
[1] = Stability test at 35° C. (storage, weekly LC purity analysis); format: physicochemical; conditions: stored at 35° C.; for purity in stability test, number of days 0: day 0; for purity in stability test, number of days 7: day 7; for purity in stability test, number of days 14: day 14; for purity in stability test, number of days 21: day 21; for purity in stability test, number of days 28: day 28; for purity in stability test, number of days 56: day 56; for stability (assessment in words): results of Table 1
Protocol: As the amorphous of 2ccPA above, 300 mg of 2ccPA (obtained in Example 3) dissolved in 5 mL of water and freeze-dried was used.
In the stability test, about 15 mg each of the 2ccPA crystal of the present invention, the 2ccPA of a formula described in documents, and an amorphous of 2ccPA were weighed, and individually diluted with 5 mL of acetonitrile/water (1/1). Then, 5 μL each of the diluted solutions was analyzed weekly using the LC-2010CHT (Shimazu Corporation).

[2] = Storage stability, hermetically sealed, −20° C. and 35° C. for 3 months; format: physicochemical; conditions: stored at −20° C. and 35° C. for 3 months
Excerpt: The crystal of 2ccPA of the present invention is excellent in storage stability.

[3] = listed as 2ccPA crystal obtained by the production method of the present invention, sodium salt

## CCCCCCCC/C=C\CCCCCCCC(=O)OCC1COP(=O)([O-])C1.[Na+] (stereo not shown) [2ccPA crystal of the present invention, 4-[(Z)-octadec-9-enoyloxymethyl]-2-oxo-1,2-λ^5-oxaphosphorane-2-olate sodium salt]
[1]; sodium salt
  purity in stability test, number of days 0: 99.561%
  purity in stability test, number of days 7: 99.605%
  purity in stability test, number of days 14: 99.576%
  purity in stability test, number of days 21: 99.631%
  purity in stability test, number of days 28: 99.626%
  purity in stability test, number of days 56: 99.493%
[1]; day 42
  purity in stability test, number of days 42: 99.593%
[1]; [3]
  purity in stability test, number of days 56: 99.493%
  stability (assessment in words): excellent stability
[2]
  storage stability (decrease in purity, decomposition): little decrease in purity

## CCCCCCCC/C=C\CCCCCCCC(=O)OCC1COP(=O)(O)C1 (stereo not shown) [A formula described in documents, sodium salt of 9-octadecenoic acid (9Z)-(2-hydroxy-2-oxo-2λ^5-1,2-oxaphosphoran-4-yl)methyl ester]
[1]
  purity in stability test, number of days 0: 67.934%
  purity in stability test, number of days 7: 66.665%
  purity in stability test, number of days 14: 67.517%
  purity in stability test, number of days 21: 62.77%
  purity in stability test, number of days 28: 59.841%
  stability (assessment in words): unstable

## CCCCCCCC/C=C\CCCCCCCC(=O)OCC1COP(=O)([O-])C1.[Na+] (stereo not shown) [Amorphous of 2ccPA, sodium salt of 9-octadecenoic acid (9Z)-(2-hydroxy-2-oxo-2λ^5-1,2-oxaphosphoran-4-yl)methyl ester]
[1]
  purity in stability test, number of days 0: 99.599%
  purity in stability test, number of days 7: 83.363%
  purity in stability test, number of days 14: 45.02%
  purity in stability test, number of days 21: 34.738%
  purity in stability test, number of days 28: 27.077%
  stability (assessment in words): unsatisfactory
